Columns and labels:
[1] = tested on: VEGF induced increases in intracellular calcium levels in HUVEC (human umbilical vein endothelial cells); test: VEGF Stimulated Ca++ Signal in vitro (FLIPR); format: cell-based; details: VEGF 5 ng/mL; for IC50: 0.01 to 10.0 μM
Outline: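 HUVEC loaded with Fluo-4 (45 min, 37° C.), washed, then pre-incubated 30 min with compound (10 μM single dose or 0.01–10.0 μM; 0.1% DMSO) before 5 ng/mL VEGF. Fluorescence at 516 nm read by FLIPR; IC50 from % inhibition of max-min VEGF response.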

[2] = target: T1, cytoplasmic domain of the human VEGF receptor (VEGFR-2) (Homo sapiens, UniProt P35968); test: KDR Assay; format: biochemical; details: His-VEGFR-2; 3.6 μM ATP
T1 construct: The cytoplasmic domain of the human VEGF receptor (VEGFR-2) was expressed as a Histidine-tagged fusion protein; Histidine tag
T1 sequence (P35968 786-1356): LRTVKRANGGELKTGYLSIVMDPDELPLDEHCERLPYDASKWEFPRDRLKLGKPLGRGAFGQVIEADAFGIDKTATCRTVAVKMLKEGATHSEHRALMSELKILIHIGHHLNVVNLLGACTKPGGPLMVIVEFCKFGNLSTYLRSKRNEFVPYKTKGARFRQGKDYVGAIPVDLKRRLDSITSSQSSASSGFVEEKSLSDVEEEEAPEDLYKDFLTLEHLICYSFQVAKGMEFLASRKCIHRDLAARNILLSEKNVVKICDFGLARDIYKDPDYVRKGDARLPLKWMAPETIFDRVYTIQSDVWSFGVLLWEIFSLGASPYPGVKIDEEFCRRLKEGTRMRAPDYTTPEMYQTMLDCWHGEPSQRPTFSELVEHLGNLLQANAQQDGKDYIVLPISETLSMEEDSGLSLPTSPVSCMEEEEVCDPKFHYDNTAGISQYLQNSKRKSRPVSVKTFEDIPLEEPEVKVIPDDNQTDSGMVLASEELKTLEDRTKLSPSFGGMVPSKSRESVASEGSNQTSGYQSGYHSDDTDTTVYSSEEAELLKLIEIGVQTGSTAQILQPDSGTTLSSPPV
Outline: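 His-tagged human VEGFR-2 cytoplasmic domain from baculovirus-infected insect cells, acting on poly-Glu-Tyr (4:1)-coated plates with 3.6 μM ATP in Hepes pH 7.4 with MgCl2/MnCl2 and 5% final DMSO, 10 min at 25 °C. Phosphotyrosine detected by peroxidase-conjugated antibody ELISA at 492 nm; IC50 from blank-subtracted OD versus concentration.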

COc1ccc(NC=C2C(=O)Nc3ccc(F)cc32)cc1O [Example 164, 5-Fluoro-3-[(3-hydroxy-4-methoxy-phenylamino)-methylene]-1,3-dihydro-indol-2-one] gave an inhibition at 10 µM ([1]; Homo sapiens) of 98.8% and an IC50 [2] of 380 nM.

O=C1Nc2ccccc2C1=CNc1ccc(C(=O)O)c(O)c1 [Example 44, 2-Hydroxy-4-[(2-oxo-1,2-dihydro-indol-3-ylidenemethyl)-amino]-benzoic acid] gave an inhibition at 10 µM ([1]; Homo sapiens) of 96%, an IC50 ([1]; Homo sapiens) of 2020 nM and an IC50 [2] of 660 nM.

Work on O=C1Nc2ccccc2C1=CNc1cccc(O)c1 [Example 15, 3-[(3-Hydroxy-phenylamino)-methylene]-1,3-dihydro-indol-2-one] yielded an inhibition at 10 µM ([1]; Homo sapiens) of 93.7% and an IC50 [2] of 910 nM.

Cc1cccc2c1C(=CNc1ccc(O)cc1)C(=O)N2 [Example 96, 3-[(4-Hydroxy-phenylamino)-methylene]-4-methyl-1,3-dihydro-indol-2-one] showed an inhibition at 10 µM ([1]; Homo sapiens) of 97%, an IC50 ([1]; Homo sapiens) of 1680 nM and an IC50 [2] of 200 nM.

With CC(C)(C)c1ccc(NC=C2C(=O)Nc3ccccc32)cc1 [Example 17, 3-[(4-tert-Butyl-phenylamino)-methylene]-1,3-dihydro-indol-2-one] the inhibition at 10 µM ([1]; Homo sapiens) was 76.5%, the IC50 ([1]; Homo sapiens) was 3000 nM and the IC50 [2] was 790 nM.

For Cc1cccc2c1C(=CNc1cccc(CCC(=O)O)c1)C(=O)N2 [Example 142, 3-{3-[(4-Methyl-2-oxo-1,2-dihydro-indol-3-ylidenemethyl)-amino]-phenyl}-propionic acid], the inhibition at 10 µM ([1]; Homo sapiens) was 99.3%, the IC50 ([1]; Homo sapiens) was 4160 nM and the IC50 [2] was 210 nM.

With O=C1Nc2ccc(F)cc2C1=CNc1cccc(O)c1 [Example 177, 5-Fluoro-3-[(3-hydroxy-phenylamino)-methylene]-1,3-dihydro-indol-2-one] the IC50 [1] was 740 nM, the inhibition at 10 µM ([1]; Homo sapiens) was 98.2% and the IC50 ([1]; Homo sapiens) was ≤ 1000 nM. For the same compound, the IC50 [2] was 750 nM.

Compound O=C1Nc2ccccc2C1=CNc1ccc(N2CCOCC2)c(C(=O)O)c1 [Example 195, 2-Morpholin-4-yl-5-[(2-oxo-1,2-dihydro-indol-3-ylidenemethyl)-amino]-benzoic acid] has an inhibition at 10 µM ([1]; Homo sapiens) of 91.1%, an IC50 ([1]; Homo sapiens) of 4670 nM and an IC50 [2] of 960 nM.

Compound O=C(O)CCc1ccc(NC=C2C(=O)Nc3ccccc32)cc1 [Example 144, 3-{4-[(2-Oxo-1,2-dihydro-indol-3-ylidenemethyl)-amino]-phenyl}-propionic acid] has an inhibition at 10 µM ([1]; Homo sapiens) of 96.5%, an IC50 ([1]; Homo sapiens) of 2700 nM and an IC50 [2] of 460 nM.

Cc1cccc2c1C(=CNc1ccc(C(=S)N3CCOCC3)cc1)C(=O)N2 [Example 196, 4-Methyl-3-{[4-(1-morpholin-4-yl-methanethiol)-phenylamino]-methylene}-1,3-dihydro-indol-2-one] was tested, and the IC50 [1] was 770 nM, the inhibition at 10 µM ([1]; Homo sapiens) was 73.1% and the IC50 ([1]; Homo sapiens) was ≤ 1000 nM. For the same compound, the IC50 [2] was 50 nM.

Cc1cccc2c1C(=CNc1ccc(CO)cc1)C(=O)N2 [Example 99, 3-[(4-Hydroxymethyl-phenylamino)-methylene]-4-methyl-1,3-dihydro-indol-2-one] was tested, and the inhibition at 10 µM ([1]; Homo sapiens) was 97.8% and the IC50 [2] was 210 nM.

In the case of COc1ccc(NC=C2C(=O)Nc3cccc(C)c32)cc1O [Example 117, 3-[(3-Hydroxy-4-methoxy-phenylamino)-methylene]-4-methyl-1,3-dihydro-indol-2-one], the inhibition at 10 µM ([1]; Homo sapiens) is reported as 97.7% and the IC50 [2] is reported as 310 nM.

For O=C1Nc2ccccc2C1=CNc1ccc(CO)cc1 [Example 88, 3-[(4-Hydroxymethyl-phenylamino)-methylene]-1,3-dihydro-indol-2-one], the IC50 [1] was 1000 nM, the inhibition at 10 µM ([1]; Homo sapiens) was 97.5% and the IC50 ([1]; Homo sapiens) was ≤ 1000 nM. It also gave an IC50 [2] of 410 nM.

With Cc1cccc2c1C(=CNc1ccc3cn[nH]c3c1)C(=O)N2 [Example 90, 3-[(1H-Indazol-6-ylamino)-methylene]-4-methyl-1,3-dihydro-indol-2-one] the inhibition at 10 µM ([1]; Homo sapiens) was 97.8% and the IC50 [2] was 220 nM.

O=C1Nc2cccc(F)c2C1=CNc1ccc(NCCCN2CCOCC2)cc1 [Example 301, 4-Fluoro-3-{[4-(3-morpholin-4-yl-propylamino)-phenylamino]-methylene}-1,3-dihydro-indol-2-one] was tested, and the IC50 [1] was 770 nM, the IC50 ([1]; Homo sapiens) was ≤ 1000 nM and the IC50 [2] was 270 nM.

For CN1CCCC(COc2ccc(NC=C3C(=O)Nc4ccc(Cl)cc43)cc2)C1 (stereo not shown) [Example 283, 5-Chloro-3-{[4-(1-methyl-piperidin-3-ylmethoxy)-phenylamino]-methylene}-1,3-dihydro-indol-2-one], the IC50 [1] was 940 nM, the IC50 ([1]; Homo sapiens) was ≤ 1000 nM and the IC50 [2] was 150 nM.

Compound CCN(CC)CCCOc1ccc(NC=C2C(=O)Nc3ccc(F)cc32)cc1 [Example 233, 3-{[4-(3-Diethylamino-propoxy)-phenylamino]-methylene}-5-fluoro-1,3-dihydro-indol-2-one] has an inhibition at 10 µM ([1]; Homo sapiens) of 96.9% and an IC50 [2] of 190 nM.

O=C1Nc2ccc(F)cc2C1=CNc1ccc(OCCCN2CCCCC2)cc1 [Example 240, 5-Fluoro-3-{[4-(3-piperidin-1-yl-propoxy)-phenylamino]-methylene}-1,3-dihydro-indol-2-one] showed an inhibition at 10 µM ([1]; Homo sapiens) of 98.3% and an IC50 [2] of 230 nM.

In the case of O=C1Nc2ccc(Cl)cc2C1=CNc1ccc(OCCN2CCCC2)cc1 [Example 275, 5-Chloro-3-{[4-(2-pyrrolidin-1-yl-ethoxy)-phenylamino]-methylene}-1,3-dihydro-indol-2-one], the IC50 [1] is reported as 620 nM, the IC50 ([1]; Homo sapiens) is reported as ≤ 1000 nM and the IC50 [2] is reported as 130 nM.

Compound Cc1cccc2c1C(=CNc1ccc(CCCC(=O)O)cc1)C(=O)N2 [Example 140, 4-{4-[(4-Methyl-2-oxo-1,2-dihydro-indol-3-ylidenemethyl)-amino]-phenyl}-butyric acid] has an inhibition at 10 µM ([1]; Homo sapiens) of 96.9% and an IC50 [2] of 400 nM.

Cc1cccc2c1C(=CNc1cccc(C(C)O)c1)C(=O)N2 (stereo not shown) [Example 183, 3-{[3-(1-Hydroxy-ethyl)-phenylamino]-methylene}-4-methyl-1,3-dihydro-indol-2-one] was tested, and the IC50 [1] was 750 nM, the inhibition at 10 µM ([1]; Homo sapiens) was 98.9% and the IC50 ([1]; Homo sapiens) was ≤ 1000 nM. For the same compound, the IC50 [2] was 520 nM.

With Cc1cccc2c1C(=CNc1cccc(N)c1)C(=O)N2 [Example 210, 3-[(3-Amino-phenylamino)-methylene]-4-methyl-1,3-dihydro-indol-2-one] the inhibition at 10 µM ([1]; Homo sapiens) was 97.4% and the IC50 [2] was 170 nM.

In the case of O=C(O)Cc1cccc(NC=C2C(=O)Nc3ccccc32)c1 [Example 35, (3-[(2-Oxo-1,2-dihydro-indol-3-ylidenemethyl)-amino]-phenyl-)acetic acid], the inhibition at 10 µM ([1]; Homo sapiens) is reported as 95.1%, the IC50 ([1]; Homo sapiens) is reported as 3100 nM and the IC50 [2] is reported as 190 nM.

O=C1Nc2ccccc2C1=CNc1ccc(CCO)cc1 [Example 87, 3-{[4-(2-Hydroxyethyl)phenylamino]-methylene}-1,3-dihydro-indol-2-one] gave an inhibition at 10 µM ([1]; Homo sapiens) of 79.5%, an IC50 ([1]; Homo sapiens) of 2250 nM and an IC50 [2] of 460 nM.

Compound O=C1Nc2ccc(Cl)cc2C1=CNc1ccc(CO)cc1 [Example 111, 5-Chloro-3-[(4-(hydoxymethyl)phenylamino)-methylene]-1,3-dihydro-indol-2-one] has an inhibition at 10 µM ([1]; Homo sapiens) of 98.5%, an IC50 ([1]; Homo sapiens) of 1170 nM and an IC50 [2] of 430 nM.

CN1CCCC(COc2ccc(NC=C3C(=O)Nc4cccc(F)c43)cc2)C1 (stereo not shown) [Example 281, 4-Fluoro-3-{[4-(1-methyl-piperidin-3-ylmethoxy)-phenylamino]-methylene}-1,3-dihydro-indol-2-one] was tested, and the IC50 [1] was 730 nM, the IC50 ([1]; Homo sapiens) was ≤ 1000 nM and the IC50 [2] was 320 nM.

For CCN(CC)CCOc1ccc(NC=C2C(=O)Nc3ccccc32)cc1 [Example 265, 3-{[4-(2-Diethylamino-ethoxy)-phenylamino]-methylene}-1,3-dihydro-indol-2-one], the IC50 [1] was 530 nM, the IC50 ([1]; Homo sapiens) was ≤ 1000 nM and the IC50 [2] was 610 nM.

— patent publication US20030225152A1, “3-(Arylamino)methylene-1, 3-dihydro-2h-indol-2-ones as kinase inhibitors” (priority 2001, published 2003)
